From patent US12714700B2 (priority 2017, dated 2026) come the findings set out here.

The test system of the assay is ob/ob mice. Particulars: cohort 2 (HFD conditioning, then 50 mg/kg), relative to untreated controls.

In the case of `N#Cc1ccc2nnc(C(=O)N3CCC(c4cccc(F)c4C(F)(F)F)CC3)n2c1` [Compound 2, 3-(4-(3-fluoro-2-(trifluoromethyl)phenyl)piperidine-1-carbonyl)-[1,2,4]triazolo[4,3-a]pyridine-6-carbonitrile], the NASH fibrosis scores entry is recorded as “reduction” and the “amount of bridging fibrosis” value was “decrease”.
